{"source": "patent EP4591860A1", "about": "“OPHTHALMIC PHARMACEUTICAL COMPOSITION FOR THE PREVENTION AND TREATMENT OF DRY EYE SYNDROME” (FB Vision S.p.A., priority 2024, dated 2025)", "format_in_all_cases": "cell-based, human", "key": {"[1]": {"tested_on": "NF-kβ p65", "test": "NF-kβ p65 DNA binding activity test (TransAM ELISA) in LPS-stimulated HCEC", "details": "500 ng/ml LPS, 12 hours; PGB 100 µg/ml, HA 100 µg/ml or combination", "description": "To evaluate the ability of the synergistic composition of the invention to inhibit NF-kβ activity in corneal cells, the NF-kβ p65 DNA Binging activity test was used with the ELISA kit of the TransAM p65 transcription factor (Active Motif, Carlsbad, CA).\nHCEC cells were stimulated with 500 ng/ml LPS in the presence and absence of PGB 100 µg/ml, HA 100 µg/ml or a combination of PGB+HA for 12 hours, as described here.\nSubsequently, the DNA binding activity of NF-kβ p65 was determined. 12 hours after stimulation with LPS markedly promoted the DNA-binding activity of NF-kβ p65 and the expression of the pro-inflammatory cytokines IL-1β, IL-6 and TNF-α."}, "[2]": {"tested_on": "IL-1β", "test": "LPS-stimulated cytokine secretion in HCEC (ELISA)", "details": "500 ng/mL LPS 24-hour; preincubation 1h; 100 µg/ml each, combination in 1/1 ratio", "description": "(§1) IL-1b, IL-6 and TNF-a were detected with ELISA kits purchased from Abcam, Cambridge (MA) USA. Data are expressed as mean ± SEM, n=4; *p<0.001 with respect to LPS, **p<0.001 with respect to PGB or HA alone.\n(§2) 24-hour exposure of HCECs to 500 ng/mL LPS induced maximal secretion of IL-1β, IL-6, and TNF-α, all of which are released in small amounts under basal conditions, as shown in Figure 22."}, "[3]": {"tested_on": "IL-6", "test": "LPS-stimulated cytokine secretion in HCEC (ELISA)", "details": "500 ng/mL LPS 24-hour; preincubation 1h; 100 µg/ml each, combination in 1/1 ratio", "description": "as §1, §2"}, "[4]": {"tested_on": "TNF-α", "test": "LPS-stimulated cytokine secretion in HCEC (ELISA)", "details": "500 ng/mL LPS 24-hour; preincubation 1h; 100 µg/ml each, combination in 1/1 ratio", "description": "as §1, §2"}, "[5]": {"tested_on": "HCEC cells", "test": "MTT cell viability assay", "description": "The primary culture of HCEC (cat. PCS-700-010) was purchased from the American Type Culture Collection (ATCC), Manassas, VA, USA.\nThe cells were resuspended in basal medium for corneal epithelial cells (devoid of serum and calcium) and supplemented with a growth kit provided by ATCC.\nThe cells were seeded at a density of 8 × 10^3 cells/well in a 96-well plate and cultured overnight. The cells were then treated with PGB or HA at different concentrations for 24 hours or with empty medium (control). After gently washing them with PBS, the cells were incubated with 0.5 mg/ml MTT solution in the dark for 4 hours. After removing the supernatant, DMSO was added to solubilize the formazan. Absorbance at 570 nm was measured with an ELISA reader (Multiskan MK3) for cell viability."}}, "note": "“Also recorded” adds a separate entry of the source.", "data": [{"smiles": "CC(C)C[C@H](CN)CC(=O)O", "note": "[PGB, (S)-3-(aminomethyl)-5-methylhexanoic acid]", "values": [{"measurement": "DNA-binding activity of NF-kβ p65", "setting": "[1]", "result": "lower DNA-binding activity"}, {"measurement": "LPS-stimulated secretion of IL-1β", "setting": "[2]", "result": "significantly reduced"}, {"measurement": "LPS-stimulated secretion of IL-6", "setting": "[3]", "result": "significantly reduced"}, {"measurement": "LPS-stimulated secretion of TNF-α", "setting": "[4]", "result": "significantly reduced"}, {"measurement": "cell viability (MTT)", "setting": "[5]; 24 hours, 1000 µg/ml", "result": "a certain reduction in cell viability"}, {"measurement": "cell viability (MTT), toxicity", "setting": "[5]; 24 hours, 10, 50, 100, 200 µg/ml", "result": "no evidence of toxicity; also recorded: did not show toxicity"}]}]}
